Laboratory results from PMC8757871, “Bridging the Antimicrobial Activity of Two Lactoferricin Derivatives in E. coli and Lipid-Only Membranes” (Frontiers in Medical Technology, 2021).

Legend:
[1] = peptide partitioning from tryptophan fluorescence; format: binding; settings: for K (mole fraction partitioning coefficient) / RB ([P]B/[L]) / [P]W (peptide concentration in the water phase): Trp emission band analysis, after 1 h incubation, HBS pH 7.4, 37°C
Protocol: (§1) All hydrated samples were equilibrated for 1 h at 40°C followed by 5 freeze-and-thaw cycles using liquid N2 and intermittent vortex-mixing. Large unilamellar vesicles (LUVs) were obtained by 31 extrusions with a handheld mini extruder (Avanti Polar Lipids, Alabaster, AL) using a 100 nm pore diameter polycarbonate filter. Vesicle size and polydispersity were determined via DLS using a Zetasizer NANO ZSP (Malvern Panalytical, Malvern, UK). ANTS/DPX-containing vesicles were separated from free ANTS/DPX by exclusion chromatography using a column filled with SephadexTM G-75 (Amersham Biosciences, Little Chalfont, UK) fine gel swollen in iso-osmotic HBS. Phospholipid concentrations for all samples were determined by phosphate analysis.
Fluorescence emission from Trp, present in both peptides, was measured with the Cary Eclipse Fluorescence Spectrophotometer, setting the excitation wavelength to λ= 280 nm, which corresponds to the maximum intensity of the Trp absorption/excitation band. Intensities of exciting and emitting light were adjusted by setting the slit widths of both incident and outgoing beam to 5 or 10 nm, depending on the emission intensity, in order to optimize the signal-to-noise ratio. Emission spectra were background-subtracted to remove contributions originating from the instrument's baseline and scattered light from vesicles. All samples were measured in HBS at 37°C using a quartz cuvette, with a magnetic stirrer to prevent sample sedimentation in the case of aggregation. LUVs ([L] = 100 μM) were mixed with peptides ([P] = 2 and 4 μM), recording fluorescence spectra at various post-mixing time intervals ranging from 0.5 to 60 min. Peptide solutions were measured at concentrations of 2, 3, and 4 μM in order to calibrate their intensity dependence in buffer.
The fluorescence emission band was fitted with the log-normal-like function ([32], [33]) where λmax and I0 are, respectively, wavelength and intensity of the emission peak; Γ is the full-width-at-half-maximum (FWHM) of the band; α is a skewness parameter (fixed at an optimum values 1.36 after testing); and y = α/(α^2 − 1). Spectra from mixtures of LUVs and peptides were analyzed with a linear combination of two independent bands I^W and I^B, referring to AMPs in bulk (W) and partitioned into the lipid bilayer (B). λ^W and Γ^W were fixed to the reference values obtained by analyzing spectra from pure AMPs. Instead, I0W , I0B , λ^B, and Γ^B were adjustable parameters. The so obtained set of I0W values was converted to the concentration of dissociated peptides [P]W and further analyzed for peptide partitioning as detailed in section 2.3.1.
Following a previously reported thermodynamic formalism for the partitioning of peptides into lipid bilayers ([37]), based on the free energy of transfer of molecules from water into octanol ([38]), we define the mole fraction partitioning coefficient, K, as […]
(3) K=[P]B/([P]B+[L])/[P]W/([P]W+[W])≃[P]B[W]/[P]W[L], where [P]B is the molar concentration of peptides partitioned into the lipid phase; [P]W is the peptide concentration in the water phase; and [L] and [W] are, respectively, the molar concentrations of lipids and bulk water (55.5 M at 25°C and 55.3 M at 37°C). The approximation for K (Equation 3) is obtained applying [W] ≫ [PW] and [L] ≫ [PB] (similarly, the concentration of ions in water, i.e., buffer solutions, is negligible compared to [W]). By definition, the total concentration of peptides is [P] = [P]W + [P]B, thus leading to […]
(§2) (4) [P]=RB[W]/K︸[P]W+RB[L]︸[P]B=RB([W]/K+[L]),

[2] = ANTS/DPX dye leakage assay and equi-activity partitioning analysis; settings: for K (mole fraction partitioning coefficient) / RB ([P]B/[L]) / [P]W (peptide concentration in the water phase): fit of Equation (4), [L] = (1−20) mM, [P] = (0.05−2) mM, HBS
Protocol: as §1
Dye leakage experiments were performed combining previously reported protocols ([20], [27]). In brief, the dependencies of ANTS/DPX leakage on lipid and peptide concentration were determined by first incubating lipid vesicles ([L] = 1, 4, 10, and 20 mM) with peptides [[P] = (0.025−2) mM] at 37°C for 1 h using a gently rocking shaker (Eppendorf Thermomixer C, Hamburg, Germany). Similar time protocols were applied previously ([27]) and are justified here based on separate time-resolved leakage experiments (Supplementary Figure 3) and Trp-fluorescence measurements (Figure 3), showing that a quasi steady state has been reached after 1 h. Before measurements, lipid/peptide solutions were diluted with HBS to a lipid concentration of 50 μM, and every measurement was repeated at least twice. Vesicle size was checked after each incubation period using DLS. Samples were excited at λ= 360 nm, and the intensity of the fluorescence emission peak at λ= 530 nm, Ip, was recorded with a slit width of 10 nm for both excitation and emission monochromators. Measurements were performed in quartz cuvettes in 2 ml of the iso-osmotic buffer on a Cary Eclipse Fluorescence Spectrophotometer (Varian/Agilent Technologies, Palo Alto, CA). The percentage of leakage, E%, was calculated according to the relation
(1) E%=Ip-Imin/Imax-Imin,
where Imin is the initial fluorescence without peptide, and Imax is the fluorescence corresponding to 100% leakage determined through the addition of a 1 vol% solution of Triton X-100. The initial, monotonic increase of E% values with increasing [P] was interpolated with a sigmoidal function. This enabled us to obtain peptide and lipid concentrations leading to a specific E% value, which can in turn be used to calculate the partitioning parameters (see section 2.3.1).
as §2

[3] = solubility of the peptide in buffer (stock preparation); format: physicochemical; settings: PBS / HBS stock solutions; acetic acid up to 0.3% and DMSO up to 3% vol/vol added
Protocol: Peptide stock solutions of LF11-215 and LF11-324 were prepared in PBS solution for bacteria and HBS solution for lipid vesicles. […] AMP concentrations of the stock solutions were determined by comparing against the absorption band of the aromatic amino acids with the spectrophotometer NanoDrop ND-1000 (Thermo Fisher Scientific, Waltham, MA). Peptide stock solutions were stored in silanized glass tubes until use.

[4] = POPE/POPG LUVs [L] = 100 μM, [P] = 2 μM
[5] = POPE/POPG LUVs [L] = 100 μM, [P] = 4 μM
[6] = POPE/POPG/TOCL LUVs [L] = 100 μM, [P] = 2 μM
[7] = POPE/POPG/TOCL LUVs [L] = 100 μM, [P] = 4 μM
[8] = POPG LUVs [L] = 100 μM, [P] = 2 μM
[9] = POPG LUVs [L] = 100 μM, [P] = 4 μM
[10] = POPE/POPG LUVs, leakage 10%, 1 h at 37°C
[11] = POPE/POPG LUVs, leakage 15%, 1 h at 37°C
[12] = POPE/POPG/TOCL LUVs, leakage 10%, 1 h at 37°C
[13] = POPE/POPG/TOCL LUVs, leakage 20%, 1 h at 37°C
[14] = POPE/POPG/TOCL LUVs, leakage 40%, 1 h at 37°C

| Substance | K (mole fraction partitioning coefficient) [1, 4] | RB ([P]B/[L]) [1, 4] | [P]W (peptide concentration in the water phase) [1, 4] | K (mole fraction partitioning coefficient) [1, 5] | RB ([P]B/[L]) [1, 5] | [P]W (peptide concentration in the water phase) [1, 5] | K (mole fraction partitioning coefficient) [1, 6] | RB ([P]B/[L]) [1, 6] | [P]W (peptide concentration in the water phase) [1, 6] | K (mole fraction partitioning coefficient) [1, 7] | RB ([P]B/[L]) [1, 7] | [P]W (peptide concentration in the water phase) [1, 7] | K (mole fraction partitioning coefficient) [1, 8] | RB ([P]B/[L]) [1, 8] | [P]W (peptide concentration in the water phase) [1, 8] | K (mole fraction partitioning coefficient) [1, 9] | RB ([P]B/[L]) [1, 9] | [P]W (peptide concentration in the water phase) [1, 9] | other results |
| --- | --- | --- | --- | --- | --- | --- | --- | --- | --- | --- | --- | --- | --- | --- | --- | --- | --- | --- | --- |
| H-FWRIRIRR-NH2 [LF11-215, H-FWRIRIRR-NH2] | 70 ± 4 ×10^4 | 11.2 ± 0.3 ×10^−3 | 0.88 ± 0.03 µM | 43 ± 3 ×10^4 | 17.5 ± 0.7 ×10^−3 | 2.25 ± 0.07 µM | 82 ± 4 ×10^4 | 11.9 ± 0.2 ×10^−3 | 0.81 ± 0.02 µM | 139 ± 6 ×10^4 | 28.6 ± 0.3 ×10^−3 | 1.14 ± 0.03 µM | 161 ± 6 ×10^4 | 14.9 ± 0.3 ×10^−3 | 0.513 ± 0.015 µM | 217 ± 8 ×10^4 | 31.9 ± 0.4 ×10^−3 | 0.81 ± 0.04 µM | membrane partitioning, times higher than for LF11-324 ([1]; POPE/POPG/TOCL lipid mixtures): ~ 1.3 times; maximum amount of partitioned AMPs ([2]; PE-containing systems, [L] ≃20 mM): < 80%; ANTS/DPX dye efflux, time-resolved ([2]; POPE/POPG LUVs [L] = 50 µM, [P] = 0.5 µM, converging after 25 min): ~5%; K (mole fraction partitioning coefficient) [2, 10]: 1.37 ± 0.16 ×10^4; RB ([P]B/[L]) [2, 10]: 9.8 ± 0.4 ×10^−3; [P]W (peptide concentration in the water phase) [2, 10]: 0.040 ± 0.006 mM; K (mole fraction partitioning coefficient) [2, 11]: 0.75 ± 0.15 ×10^4; RB ([P]B/[L]) [2, 11]: 10.7 ± 1.0 ×10^−3; [P]W (peptide concentration in the water phase) [2, 11]: 0.08 ± 0.02 mM; total ANTS/DPX efflux ([2]; POPE/POPG vesicles, 1 h at 37°C, all [P] and [L] tested): ≤ 40%; K (mole fraction partitioning coefficient) [2, 12]: 1.7 ± 0.8 ×10^4; RB ([P]B/[L]) [2, 12]: 5.6 ± 0.7 ×10^−3; [P]W (peptide concentration in the water phase) [2, 12]: 0.018 ± 0.010 mM; K (mole fraction partitioning coefficient) [2, 13]: 1.5 ± 0.3 ×10^4; RB ([P]B/[L]) [2, 13]: 7.2 ± 0.5 ×10^−3; [P]W (peptide concentration in the water phase) [2, 13]: 0.026 ± 0.007 mM; K (mole fraction partitioning coefficient) [2, 14]: 1.5 ± 0.4 ×10^4; RB ([P]B/[L]) [2, 14]: 9.6 ± 0.9 ×10^−3; [P]W (peptide concentration in the water phase) [2, 14]: 0.036 ± 0.012 mM |
| H-PFFWRIRIRR-NH2 [LF11-324, H-PFFWRIRIRR-NH2] | 67 ± 4 ×10^4 | 11.0 ± 0.3 ×10^−3 | 0.90 ± 0.02 µM | 47 ± 3 ×10^4 | 18.4 ± 0.6 ×10^−3 | 2.16 ± 0.06 µM | 63 ± 4 ×10^4 | 10.6 ± 0.3 ×10^−3 | 0.95 ± 0.03 µM | 111 ± 5 ×10^4 | 26.7 ± 0.4 ×10^−3 | 1.33 ± 0.04 µM | 61 ± 4 ×10^4 | 10.5 ± 0.3 ×10^−3 | 0.95 ± 0.03 µM | 20 ± 20 ×10^4 | 10.7 ± 0.9 ×10^−3 | 2.93 ± 0.09 µM | solubility in buffer [3]: weak solubility |
